Results as given in patent EP4603105A1, “PHARMACEUTICAL COMPOSITION CONTAINING CYCLIC COMPOUND HAVING SELECTIVE KRAS INHIBITORY EFFECT AGAINST HRAS AND NRAS” (CHUGAI SEIYAKU KABUSHIKI KAISHA, priority 2022, dated 2024).
*1 amine or outer side, *2 acyl side, *3 side chain or, on linkers, in order; H or OH if unused. Where a SMILES comes first, the peptide text is derived from it. Bridges are numbered along the chain shown (N, C = ends). [ ]: non-standard residue; d: D form. The star is where a group is joined. hPhe(3-Cl-4-CF3) = N[C@@H](CCc1ccc(C(F)(F)F)c(Cl)c1)C(=O)O; X8 = CCCN([C@@H](COCCC(C)C)C(=O)[*:2])[*:1]; NMeGly(cPent) = CN[C@H](C(=O)O)C1CCCC1; NMeD = CN[C@@H](CC(=O)O)C(=O)O; NMeL = CN[C@@H](CC(C)C)C(=O)O; Morpholide = C1CN(*)CCO1; NMeA = CN[C@@H](C)C(=O)O; Aze = O=C(O)[C@@H]1CCN1; Ac4c = NC1(C(=O)O)CCC1; Sar = CNCC(=O)O

What was measured:
[1] = tested on: human lung cancer strain NCI-H441; assay type: cell-based
Outline: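 Proliferation was scored by […] measured after the reagent was added to cultures kept at 37°C in 5% carbon dioxide.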

HRAS wild-type protein = HRAS wild-type protein (Homo sapiens, UniProt P01112); experiment: Binding to HRAS by surface plasmon resonance (SPR), KD and KD ratio to KRAS; conditions: ratio of KD value for HRAS wild-type protein to KD value for KRAS (SPR)
Outline: (§1)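 Compound binding is evaluated by SPR single-cycle kinetics, with concentrations added intermittently from low to high for 75 s each. Target surfaces carry GDP-loaded biotinylated Avi-RAS at about 100–300 RU, regenerated after each cycle; temperature 30°C. A 1:1 binding model gives KD.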

[2] = biological target: GDP-bound NRAS wild-type protein (Homo sapiens, UniProt P01111); experiment: Binding to NRAS by surface plasmon resonance (SPR), KD and KD ratio to KRAS; conditions: ratio of KD value for GDP-bound NRAS wild-type protein to KD value for KRAS (SPR)
Outline: as §1

[3] = biological target: GDP-bound KRAS wild-type protein (Homo sapiens, UniProt P01116); experiment: Binding to KRAS by surface plasmon resonance (SPR), dissociation constant KD; conditions: Single Cycle Kinetics, 1:1 binding model
Outline: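 Biotinylated GDP-bound RAS was captured at about 100–300 RU. Running buffer: HBS pH 7.4, 10 mM MgCl2, 10 µM GDP, 1 mM DTT, 0.01% Tween 20, 4% DMSO.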

Chain of GDP-bound KRAS wild-type protein (P01116 1-188 isoform P01116-2): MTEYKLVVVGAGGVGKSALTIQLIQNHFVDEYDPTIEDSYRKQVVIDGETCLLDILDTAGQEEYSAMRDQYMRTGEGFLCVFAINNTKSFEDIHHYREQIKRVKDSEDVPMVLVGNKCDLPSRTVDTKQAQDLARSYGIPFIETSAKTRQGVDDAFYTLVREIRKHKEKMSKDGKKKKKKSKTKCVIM
Chain of HRAS wild-type protein (P01112 whole entry): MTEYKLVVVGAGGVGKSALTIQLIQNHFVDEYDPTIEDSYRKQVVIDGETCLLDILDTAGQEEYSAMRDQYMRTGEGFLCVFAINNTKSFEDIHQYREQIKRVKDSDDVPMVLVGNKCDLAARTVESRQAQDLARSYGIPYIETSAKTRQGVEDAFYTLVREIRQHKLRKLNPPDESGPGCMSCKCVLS
Chain of GDP-bound NRAS wild-type protein (P01111 whole entry): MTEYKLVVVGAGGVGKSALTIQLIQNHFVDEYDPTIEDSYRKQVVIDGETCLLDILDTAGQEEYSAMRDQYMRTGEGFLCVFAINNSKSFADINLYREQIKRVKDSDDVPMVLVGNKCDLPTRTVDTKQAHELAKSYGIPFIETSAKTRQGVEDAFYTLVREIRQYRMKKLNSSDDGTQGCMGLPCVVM

| IC50 [1] | Kd [3] | Structure (SMILES) | HRAS /KRAS (HRAS wild-type protein) | NRAS /KRAS [2] |
| --- | --- | --- | --- | --- |
| 6.5 nM | 0.051 nM | CC[C@H](C)[C@@H]1NC(=O)[C@H](CC2CC2)N(C)C(=O)C[C@@H](C(=O)N(C)C)N(C)C(=O)[C@H](C2CCCC2)N(C)C(=O)C2(CCC2)N(C)C(=O)[C@@H]2C[C@@H](C)CN2C(=O)[C@H](CCc2cc(F)c(C(F)(F)F)c(F)c2)NC(=O)CN(C)C(=O)[C@H](Cc2ccc(C)cc2)N2CC/C=C\C[C@@H](C2=O)N(C)C(=O)CN(C)C1=O [PP1800] | A (a compound having 10 or more and less than 20 is denoted as A) | A (a compound having 10 or more and less than 20 is denoted as A) |
| 13 nM | 0.21 nM | CC[C@H](C)[C@@H]1NC(=O)[C@H](CC2CC2)N(C)C(=O)C[C@@H](C(=O)N(C)C)N(C)C(=O)[C@H](C2CCCC2)N(C)C(=O)C2(CCC2)N(C)C(=O)[C@@H]2C[C@@H](C)CN2C(=O)[C@H](CCc2cc(F)c(C(F)(F)F)c(F)c2)NC(=O)CN(C)C(=O)[C@H](Cc2ccc(C)cc2)N2CC/C=C\C[C@@H](C2=O)N(C)C(=O)[C@@H]2CCCN2C1=O [PP1801] | B (a compound having 3 or more and less than 10 is denoted as B) | A (a compound having 10 or more and less than 20 is denoted as A) |
| 7.6 nM | 0.1 nM | CC[C@H](C)[C@@H]1NC(=O)[C@H](CC2CCC2)N(C)C(=O)C[C@@H](C(=O)N(C)C)N(C)C(=O)[C@H](C2CCCC2)N(C)C(=O)C2(CCC2)N(C)C(=O)[C@@H]2C[C@@H](C)CN2C(=O)[C@H](CCc2cc(F)c(C(F)(F)F)c(F)c2)NC(=O)CN(C)C(=O)[C@H](Cc2ccc(C)cc2)N2CC/C=C\C[C@@H](C2=O)N(C)C(=O)CN(C)C1=O [PP1803] | B (a compound having 3 or more and less than 10 is denoted as B) | A (a compound having 10 or more and less than 20 is denoted as A) |
| 7.8 nM | 0.59 nM | CC[C@H](C)[C@@H]1NC(=O)[C@H](CC)N(C)C(=O)C[C@@H](C(=O)N(C)C)N(C)C(=O)[C@H](C2CCCC2)N(C)C(=O)C2(CCCC2)N(C)C(=O)[C@@H]2C[C@@H](C)CN2C(=O)[C@H](CCc2cc(F)c(C(F)(F)F)c(F)c2)NC(=O)CN(C)C(=O)[C@H](Cc2ccc(C)cc2)N2CC/C=C\C[C@@H](C2=O)N(C)C(=O)CN(C)C1=O [PP1812] | A (a compound having 10 or more and less than 20 is denoted as A) | A (a compound having 10 or more and less than 20 is denoted as A) |
| 149 nM | 1 nM | CCCN1C(=O)[C@@H]2CCN2C(=O)[C@H](C)N(C)C(=O)[C@H]([C@@H](C)CC)NC(=O)[C@H](CC(C)C)N(C)C(=O)C[C@@H](C(=O)N2CCOCC2)N(C)C(=O)[C@H](C2CCCC2)N(C)C(=O)C2(CCC2)NC(=O)[C@@H]2CCCN2C(=O)[C@H](CCc2ccc(C(F)(F)F)c(Cl)c2)NC(=O)CN(C)C(=O)[C@@H]1COCCC(C)C [PP1819] ([NMeL]I[NMeA][Aze][X8][Sar][hPhe(3-Cl-4-CF3)]P[Ac4c][NMeGly(cPent)][NMeD]-Morpholide; lactam N-11) | C (A compound having a KD ratio of 0.1 or more and less than 3 is denoted as C) | C (A compound having a KD ratio of 0.1 or more and less than 3 is denoted as C) |
| 8 nM | 0.14 nM | CCCN1C(=O)C[C@@H](C(=O)N(C)C)N(C)C(=O)[C@H](C2CCCC2)N(C)C(=O)C2(CCC2)NC(=O)[C@@H]2C[C@@H](OCC)CN2C(=O)[C@H](CCc2cc(F)c(C(F)(F)F)c(F)c2)NC(=O)CN(C)C(=O)[C@H](Cc2ccc(C(F)(F)F)cc2)N2CC/C=C\C[C@@H](C2=O)N(C)C(=O)CN(C)C(=O)[C@H]([C@@H](C)CC)NC(=O)[C@@H]1CC(C)C [PP1825] | A (a compound having 10 or more and less than 20 is denoted as A) | A (a compound having 10 or more and less than 20 is denoted as A) |

The next lines start with the compound.

| Structure (SMILES) | IC50 [1] | Kd [3] | HRAS /KRAS (HRAS wild-type protein) | NRAS /KRAS [2] |
| --- | --- | --- | --- | --- |
| CCO[C@@H]1C[C@H]2C(=O)NC3(CCC3)C(=O)N(C)[C@@H](C3CCCC3)C(=O)N(C)[C@H](C(=O)N(C)CC)CC(=O)N(C)[C@@H](CC(F)(F)F)C(=O)N[C@@H]([C@@H](C)CC)C(=O)N(C)CC(=O)N(C)[C@H]3C/C=C\CCN(C3=O)[C@@H](Cc3ccc(C(F)(F)F)cc3)C(=O)N(C)CC(=O)N[C@@H](CCc3cc(F)c(C(F)(F)F)c(F)c3)C(=O)N2C1 [PP1701] | 3.7 nM | 0.08 nM | A (a compound having 10 or more and less than 20 is denoted as A) | A (a compound having 10 or more and less than 20 is denoted as A) |
| CCCC[C@H]1C(=O)N[C@@H]([C@@H](C)CC)C(=O)N(C)CC(=O)N(C)[C@H]2C/C=C\CCN(C2=O)[C@@H](Cc2ccc(C(F)(F)F)cc2)C(=O)N(C)CC(=O)N[C@@H](CCc2cc(F)c(C(F)(F)F)c(F)c2)C(=O)N2C[C@H](OCC)C[C@H]2C(=O)NC2(CC(F)(F)C2)C(=O)N(C)[C@@H](C2CCCC2)C(=O)N(C)[C@H](C(=O)N(C)C)CC(=O)N1C [PP1740] | 3.6 nM | 0.053 nM | A (a compound having 10 or more and less than 20 is denoted as A) | A (a compound having 10 or more and less than 20 is denoted as A) |
| CC[C@H](C)[C@@H]1NC(=O)[C@H](CC)N(C)C(=O)C[C@@H](C(=O)N(C)C)N(C)C(=O)[C@H](C2CCCC2)N(C)C(=O)C2(CCC2)N(C)C(=O)[C@@H]2CCCN2C(=O)[C@H](CCc2cc(F)c(C(F)(F)F)c(F)c2)NC(=O)CN(C)C(=O)[C@H](Cc2ccc(C)cc2)N2CC/C=C\C[C@@H](C2=O)N(C)C(=O)CN(C)C1=O [PP1782] | 6.7 nM | 0.044 nM | B (a compound having 3 or more and less than 10 is denoted as B) | A (a compound having 10 or more and less than 20 is denoted as A) |
| CC[C@H](C)[C@@H]1NC(=O)[C@H](CC)N(C)C(=O)C[C@@H](C(=O)N(C)C)N(C)C(=O)[C@H](C2CCCC2)N(C)C(=O)C2(CCC2)N(C)C(=O)[C@@H]2C[C@@H](C)CN2C(=O)[C@H](CCc2cc(F)c(C(F)(F)F)c(F)c2)NC(=O)CN(C)C(=O)[C@H](Cc2ccc(C)cc2)N2CC/C=C\C[C@@H](C2=O)N(C)C(=O)CN(C)C1=O [PP1787] | 9 nM | 0.071 nM | B (a compound having 3 or more and less than 10 is denoted as B) | A (a compound having 10 or more and less than 20 is denoted as A) |
| CC[C@H](C)[C@@H]1NC(=O)[C@H](C2CC2)N(C)C(=O)C[C@@H](C(=O)N(C)C)N(C)C(=O)[C@H](C2CCCC2)N(C)C(=O)C2(CCC2)N(C)C(=O)[C@@H]2C[C@@H](C)CN2C(=O)[C@H](CCc2cc(F)c(C(F)(F)F)c(F)c2)NC(=O)CN(C)C(=O)[C@H](Cc2ccc(C)cc2)N2CC/C=C\C[C@@H](C2=O)N(C)C(=O)CN(C)C1=O [PP1788] | 6.2 nM | 0.063 nM | B (a compound having 3 or more and less than 10 is denoted as B) | B (a compound having 3 or more and less than 10 is denoted as B) |
| CC[C@H](C)[C@@H]1NC(=O)[C@H](CC(C)C)N(C)C(=O)C[C@@H](C(=O)N(C)C)N(C)C(=O)[C@H](C2CCCC2)N(C)C(=O)C2(CCC2)N(C)C(=O)[C@@H]2CCCN2C(=O)[C@H](CCc2cc(F)c(C(F)(F)F)c(F)c2)NC(=O)CN(C)C(=O)[C@H](Cc2ccc(C)cc2)N2CC/C=C\C[C@@H](C2=O)N(C)C(=O)CN(C)C1=O [PP1791] | 3.7 nM | 0.042 nM | A (a compound having 10 or more and less than 20 is denoted as A) | A (a compound having 10 or more and less than 20 is denoted as A) |
| CCC[C@H]1C(=O)N[C@@H]([C@@H](C)CC)C(=O)N(C)CC(=O)N(C)[C@H]2C/C=C\CCN(C2=O)[C@@H](Cc2ccc(C)cc2)C(=O)N(C)CC(=O)N[C@@H](CCc2cc(F)c(C(F)(F)F)c(F)c2)C(=O)N2CCC[C@H]2C(=O)N(C)C2(CCC2)C(=O)N(C)[C@@H](C2CCCC2)C(=O)N(C)[C@H](C(=O)N(C)C)CC(=O)N1C [PP1794] | 8.7 nM | 0.06 nM | B (a compound having 3 or more and less than 10 is denoted as B) | A (a compound having 10 or more and less than 20 is denoted as A) |
| CCO[C@@H]1C[C@H]2C(=O)N(C)C3(CCC3)C(=O)N(C)[C@@H](C3CCCC3)C(=O)N(C)[C@H](C(=O)N(C)C)CC(=O)N(C)[C@@H](CC3CC3)C(=O)N[C@@H]([C@@H](C)CC)C(=O)N(C)CC(=O)N(C)[C@H]3C/C=C\CCN(C3=O)[C@@H](Cc3ccc(C)cc3)C(=O)N(C)CC(=O)N[C@@H](CCc3cc(F)c(C(F)(F)F)c(F)c3)C(=O)N2C1 [PP1795] | 3 nM | 0.031 nM | B (a compound having 3 or more and less than 10 is denoted as B) | A (a compound having 10 or more and less than 20 is denoted as A) |
